This passage reports IC50 results from patent publication US20240415819A1, “MACROCYCLIC COMPOUNDS AS PROTEASOME SUBUNIT BETA TYPE-5 INHIBITORS” (Lead Discovery Center GmbH, priority 2021, published 2024).

The target of assay [1] is T1, β5 subunit of the human constitutive proteasome (CPS) (Homo sapiens, UniProt P28074).
T1 construct: purchased Boston Biochem E-360
Description: β5 inhibition assay, human constitutive proteasome (Suc-LLVY-AMC). The assay is classed as biochemical. To be noted: IC50 class, Suc-LLVY-AMC substrate. The procedure:
The enzymatic activity of the β5 subunit of the human constitutive proteasome (CPS) is analyzed. In another assay, which differs from the assay of the human constitutive proteasome only in using the human immunoproteasome (IPS) the enzymatic activity of the β5 subunit of the human immunoproteasome (IPS) is analyzed. […] Inhibition is indicated as IC50 [nM] (“-”=not measured).

Assay [2] relates to A549 (human lung carcinoma cell line). The assay is described as follows: Glo assay of A549 cells (Table 3; ProteasomeGlo plating scheme). The assay is classed as cell-based. As to conditions: Homo sapiens; A549 cells; read-out: PGLo A549. A digest of the protocol:
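Compound treatment lasts 105 minutes at 37° C. under 5% CO2. Suc-LLVY-Glo substrate premixed with detection reagent (60 min at room temperature) is then added directly to the cells, and luminescence after 10-15 min in the dark gives the IC50 in nM.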

The subject of assay [3] is hPMBC. The assay is described as follows: Chymotrypsin-like ProteasomeGlo assay in hPBMC. The assay is classed as cell-based. As to conditions: Homo sapiens; read-out: Pglo hPBMC. An excerpt:
Chymotrypsin-like ProteasomeGlo assay in the B-cells isolated from PBMC's following compound addition (IC50). • 1. PBMC's will be isolated from human blood followed by B-cell isolation from the PBMC's using the Miltenyi Isolation Kit. • 2. This experiment will use the Chymotrypsin-like ProteasomeGlo read-out to generate IC50's following compound treatment. • 3. Dilute all compounds 1:100 for the assay. • 4. […] Repeat the DMSO transfer with lane 12. • 5. Lane 12 should not be seeded with any cells. Only medium! • 6. For all steps, make sure the samples and reagents remain cool! • 7. While dealing with the buffy coats, be careful to not let any exposed skin to be in direct contact with the blood.
For the initial steps and to make processing the buffy coats easier, separately process the buffy coats. • a. Cut the tube attached to the buffy coats carefully using a clean, sterile and fresh scalpel. • b. Transfer the blood into 2 individual 50 ml falcons. • c. Add an equal volume of DPBS to the blood in the falcons. • d. Add ˜20 ml of lymphocyte separating medium to two 50 ml falcons. • e. Carefully pour 15-20 ml of the blood+DPBS mix from step c. onto the lymphocyte separating medium from step d. • f. Centrifuge the falcons with the lymphocyte separating medium+blood mix at 800×g for 15 minutes using a swing-out rotor. • g. Following centrifugation, carefully remove the falcons from the centrifuge. • h. The following layers will be observed: • i. Aspirate the plasma layer off carefully without disturbing the different layers. • j. Remove the cell pellet using a pipette into two fresh 50 ml falcons. • k. Fill the falcons with the cells up to 50 ml with DPBS. • l. Centrifuge the falcons at 250×g for 10 minutes using a swing-out rotor (Brake-off). • m. Aspirate the complete DPBS off the cells without disturbing the cell pellet at the bottom of the falcon. • n. Re-suspend the cell pellet in 10 ml of 1×RBC lysis buffer. • o. Incubate the falcons at room temperature in the dark for 10 minutes. • p. After RBC lysis, centrifuge the tubes at 250×g for 10 minutes using a swing-out rotor (brake-off). • (*Note: If the cell pellet is still red or light red, repeat steps n. to p.!) • q. Re-suspend the cell pellet in DPBS up to 50 ml in the falcon. • r. Centrifuge the falcons at 250×g for 10 minutes using a swing-out rotor (Brake-off). • s. Aspirate the DPBS off the cells without disturbing the cell pellet at the bottom of the falcon. • t. Repeat the wash step as described in steps q. to s. 2× times more (total number of washes is 3×). • u. Aspirate the DPBS completely off the cell pellet after the last wash without disturbing the cell pellet. • v. Re-suspend the cell pellet in 20 ml of PBMC cell medium. • w.
• a. Remove the plates with cells from the incubator. • b. Take all the plates including the compound plate, intermediate plate and Staurosporine plate to the ECHO. • c. Click on “Open” in the ECHO software and select the protocol “QLI5_25ul_30 uM-Grenier”. • d. Follow the on-screen prompts and instructions once you click “Start” to insert the compound plate, intermediate plate and destination plates. • e. Change the final number of destination plates on the program. • f. Follow the on-screen prompts and instructions once you click “Start” to load the Staurosporine and destination plates. • g. Once all the compounds, DMSO and Staurosporine have been transferred, place the destination plates in a wet tissue box. • h. Place the destination plates back into the incubator and incubate at 37° C., 5% CO2 for 105 minutes. • i. Re-seal all the compound+Stauro diamond and intermediate plates and store in the dark. Chymotrypsin like ProteasomeGlo Assay • 1. Thaw the components of the ProteasomeGlo assay at room temperature including the ProteasomeGlo Buffer, the lyophilized Luciferin Detection Reagent and the Suc-LLVY-Glo Substrate. • 2. […]

Consider `Cc1ccc2cc1CNC(=O)C(c1cnn(C)c1)NC(=O)CCCCC(=O)N1CCCC(CCO2)C1` (stereo not drawn) [Compound 356, 5^4-methyl-9-(1-methyl-1H-pyrazol-4-yl)-4-oxa-7,10-diaza-1(3,1)-piperidina-5(1,3)-benzenacyclohexadecaphane-8,11,16-trione], for which the IC50 in assay [1] was 500 to 1000 nM; in assay [2], 500 to 1000 nM; in assay [3], < 100 nM.

For the compound `Cc1ccc2cc1CNC(=O)C(CCc1ccc(S(=O)(=O)O)cc1)NC(=O)[C@@H](NC(=O)OCc1ccccc1)CC(=O)N1CCCC(CCO2)C1` (stereo partly drawn) [Compound 509, 4-(2-((12S)-12-(((benzyloxy)carbonyl)amino)-5^4-methyl-8,11,14-trioxo-4-oxa-7,10-diaza-1(3,1)-piperidina-5(1,3)-benzenacyclotetradecaphane-9-yl)ethyl)benzenesulfonic acid], the IC50 in assay [1] was < 100 nM; in assay [2] it was < 100 nM; in assay [3] it was 100 to 500 nM.

Consider `CC(=O)N[C@H]1CC(=O)N2CCCC(CCOc3ccc(C)c(c3)CNC(=O)C(Cn3c(=O)oc4ccccc43)NC1=O)C2` (stereo partly drawn) [Compound 555, N-((12S)-5^4-methyl-8,11,14-trioxo-9-((2-oxobenzo[d]oxazol-3(2H)-yl)methyl)-4-oxa-7,10-diaza-1(3,1)-piperidina-5(1,3)-benzenacyclotetradecaphane-12-yl)acetamide], for which the IC50 in assay [1], in assay [2] and in assay [3] was < 100 nM in each case.

Turning to `Cc1ccc2cc1CNC(=O)C(CCc1ccncc1)NC(=O)[C@@H](NC(=O)Cc1ccc(N)cc1F)CC(=O)N1CCCC(CCO2)C1` (stereo partly drawn) [Compound 344, 2-(4-amino-2-fluorophenyl)-N-((12S)-5^4-methyl-8,11,14-trioxo-9-(2-(pyridin-4-yl)ethyl)-4-oxa-7,10-diaza-1(3,1)-piperidina-5(1,3)-benzenacyclotetradecaphane-12-yl)acetamide], the IC50 in assay [1], in assay [2] and in assay [3] was < 100 nM each time.

Turning to `CO[C@@H](C(=O)N[C@H]1CC(=O)N2CCCC(CCOc3ccc(C)c(c3)CNC(=O)C(c3cnn(C)c3)NC1=O)C2)c1ccccc1` (stereo partly drawn) [Compound 361, (2R)-2-methoxy-N-((12S)-5^4-methyl-9-(1-methyl-1H-pyrazol-4-yl)-8,11,14-trioxo-4-oxa-7,10-diaza-1(3,1)-piperidina-5(1,3)-benzenacyclotetradecaphane-12-yl)-2-phenylacetamide], the IC50 is < 100 nM in assay [1], 100 to 500 nM in assay [2] and < 100 nM in assay [3].

As for `CC(=O)N[C@H]1CC(=O)N2CCCC(CCOc3ccc(C)c(c3)CNC(=O)C(c3cnn(C)c3)NC1=O)C2` (stereo partly drawn) [Compound 552, N-((12S)-5^4-methyl-9-(1-methyl-1H-pyrazol-4-yl)-8,11,14-trioxo-4-oxa-7,10-diaza-1(3,1)-piperidina-5(1,3)-benzenacyclotetradecaphane-12-yl)acetamide], the IC50 in assay [1] was < 100 nM; in assay [2], 100 to 500 nM; in assay [3] it was < 100 nM.

With `CC(=O)N[C@H]1CC(=O)N2CCCC(CCOc3ccc(C)c(c3)CNC(=O)C(CCc3nccs3)NC1=O)C2` (stereo partly drawn) [Compound 563, N-((12S)-5^4-methyl-8,11,14-trioxo-9-(2-(thiazol-2-yl)ethyl)-4-oxa-7,10-diaza-1(3,1)-piperidina-5(1,3)-benzenacyclotetradecaphane-12-yl)acetamide], the IC50 in assay [1], in assay [2] and in assay [3] was < 100 nM in each case.

`Cc1ccc2cc1CNC(=O)C(c1cnn(C)c1)NC(=O)[C@@H](NC(=O)C1CCCc3ccccc31)CC(=O)N1CCCC(CCO2)C1` (stereo partly drawn) [Compound 360, N-((12S)-5^4-methyl-9-(1-methyl-1H-pyrazol-4-yl)-8,11,14-trioxo-4-oxa-7,10-diaza-1(3,1)-piperidina-5(1,3)-benzenacyclotetradecaphane-12-yl)-1,2,3,4-tetrahydronaphthalene-1-carboxamide]: the IC50 in assay [1], in assay [2] and in assay [3] was < 100 nM in each case.

Turning to `CC(=O)N[C@H]1CCC(=O)N2CC3CC(Oc4ccc(C)c(c4)CNC(=O)[C@H](CCc4ccccc4)NC1=O)C3C2` (stereo partly drawn) [Compound 299, N-(3^4-methyl-6,9,13-trioxo-7-phenethyl-2-oxa-13,5,8-triaza-1(6,3)-bicyclo[3.2.0]heptana-3(1,3)-benzenacyclotridecaphane-10-yl)acetamide], the IC50 in assay [1] was > 5000 nM; in assay [2], > 5000 nM; in assay [3], 1000 to 5000 nM.

Consider `Cc1ccc2cc1CNC(=O)[C@H](CCc1ccccc1)NC(=O)[C@@H](NC(=O)Cc1nnc(N)s1)CC(=O)N1CCCC(CCO2)C1` (stereo partly drawn) [Compound 310, 2-(5-amino-1,3,4-thiadiazol-2-yl)-N-((9S,12S)-54-methyl-8,11,14-trioxo-9-phenethyl-4-oxa-7,10-diaza-1(3,1)-piperidina-5(1,3)-benzenacyclotetradecaphane-12-yl)acetamide], for which the IC50 in assay [1], in assay [2] and in assay [3] was < 100 nM in each case.

Consider `Cc1ccc2cc1CNC(=O)[C@H](CCc1ccccc1)NC(=O)[C@@H](NC(=O)OCc1ccccc1)CC(=O)N1CCCC3(CC(C3)O2)C1` [Compound 300], for which the IC50 lay within 100 to 500 nM in assay [1], 1000 to 5000 nM in assay [2] and 500 to 1000 nM in assay [3].

`Cc1ccc2cc1CNC(=O)[C@H](CCc1ccccc1)NC(=O)[C@@H](NC(=O)OCc1ccccc1)CCCCC(=O)NCCCCO2` [Compound 347, benzyl ((13S,16S)-1^4-methyl-8,14,17-trioxo-16-phenethyl-2-oxa-7,15,18-triaza-1(1,3)-benzenacyclononadecaphane-13-yl)carbamate]: the IC50 in assay [1] was < 100 nM; in assay [2], 100 to 500 nM; in assay [3], < 100 nM.

For the compound `Cc1ccc2cc1CNC(=O)[C@H](CCc1ccccc1)NC(=O)[C@@H](NC(=O)OCc1ccccc1)CCCC(=O)NCCCCO2` [Compound 322, benzyl ((12S,15S)-1^4-methyl-8,13, 16-trioxo-15-phenethyl-2-oxa-7,14,17-triaza-1(1,3)-benzenacyclooctadecaphane-12-yl)carbamate], the IC50 in assay [1] was < 100 nM; in assay [2], 1000 to 5000 nM; in assay [3] it was 500 to 1000 nM.

On to `Cc1ccc2cc1CNC(=O)C(CCc1cnc3nccnc3c1)NC(=O)[C@@H](NC(=O)OCc1ccccc1)CC(=O)N1CCCC(CCO2)C1` (stereo partly drawn) [Compound 505, benzyl ((12S)-5^4-methyl-8,11,14-trioxo-9-(2-(pyrido[2,3-b]pyrazin-7-yl)ethyl)-4-oxa-7,10-diaza-1(3,1)-piperidina-5(1,3)-benzenacyclotetradecaphane-12-yl)carbamate], for which the IC50 was < 100 nM in assay [1], < 100 nM in assay [2] and 100 to 500 nM in assay [3].
